Tests used:
[1] = biological target: T1, Cytochrome P450 2D6 (Homo sapiens, UniProt P10635); assay: Intrinsic clearance assessed as human recombinant CYP2D6-mediated drug depletion per pmol protein by LC-MS/MS method; assay type: ADME; details: recombinant enzyme
[2] = system: Homo sapiens; assay: AUC (0 to last) in human at 15 mg, po administered as single dose by liquid scintillation counting method; assay type: ADME, organism-based, Plasma; design: dose 15 mg, time 0 - last, route oral; details: in vivo
[3] = biological target: T1, Cytochrome P450 2D6; assay: Normalized intrinsic clearance assessed as human recombinant CYP2D6-mediated drug depletion per pmol protein by LC-MS/MS method; assay type: ADME; details: recombinant enzyme
[4] = system: Plasma; assay: Drug level in human plasma treated with [14C}LY2452473 at 15 mg, po after 48 hrs administered as single dose by HPLC analysis; assay type: ADME, organism-based; details: in vivo
[5] = Drug level in urine of human treated with [14C}LY2452473 at 15 mg, po administered as single dose by LC-MS/MS method; assay type: ADME, organism-based; details: in vivo
[6] = biological target: T2, Cytochrome P450 2J2 (Homo sapiens, UniProt P51589); assay: Fraction metabolized assessed as human recombinant CYP2J2-mediated drug depletion by LC-MS/MS method relative to total normalized intrinsic clearance; assay type: ADME; details: recombinant enzyme
T2 sequence (P51589 whole entry): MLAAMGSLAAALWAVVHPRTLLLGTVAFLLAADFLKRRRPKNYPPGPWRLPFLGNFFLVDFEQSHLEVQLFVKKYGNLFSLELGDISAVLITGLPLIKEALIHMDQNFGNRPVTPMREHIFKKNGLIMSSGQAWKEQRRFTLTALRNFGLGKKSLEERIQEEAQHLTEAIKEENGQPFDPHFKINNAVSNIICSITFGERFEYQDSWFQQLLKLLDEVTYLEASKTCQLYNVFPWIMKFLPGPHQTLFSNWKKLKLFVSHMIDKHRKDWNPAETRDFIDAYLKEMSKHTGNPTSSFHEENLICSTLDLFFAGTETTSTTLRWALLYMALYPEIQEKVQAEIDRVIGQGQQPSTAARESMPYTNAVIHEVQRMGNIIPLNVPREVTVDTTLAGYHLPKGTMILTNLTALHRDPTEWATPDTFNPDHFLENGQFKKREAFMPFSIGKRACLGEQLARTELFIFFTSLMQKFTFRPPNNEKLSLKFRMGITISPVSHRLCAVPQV

[7] = system: Homo sapiens; assay: Cmax in human at 15 mg, po administered as single dose by liquid scintillation counting method; assay type: ADME, organism-based; design: dose 15 mg, route oral; details: in vivo
[8] = biological target: Cytochrome P450 2C19 (Homo sapiens, UniProt P33261); assay: Fraction metabolized assessed as human recombinant CYP2C19-mediated drug depletion by LC-MS/MS method relative to total normalized intrinsic clearance; assay type: ADME; details: recombinant enzyme
Sequence of Cytochrome P450 2C19 (P33261 whole entry): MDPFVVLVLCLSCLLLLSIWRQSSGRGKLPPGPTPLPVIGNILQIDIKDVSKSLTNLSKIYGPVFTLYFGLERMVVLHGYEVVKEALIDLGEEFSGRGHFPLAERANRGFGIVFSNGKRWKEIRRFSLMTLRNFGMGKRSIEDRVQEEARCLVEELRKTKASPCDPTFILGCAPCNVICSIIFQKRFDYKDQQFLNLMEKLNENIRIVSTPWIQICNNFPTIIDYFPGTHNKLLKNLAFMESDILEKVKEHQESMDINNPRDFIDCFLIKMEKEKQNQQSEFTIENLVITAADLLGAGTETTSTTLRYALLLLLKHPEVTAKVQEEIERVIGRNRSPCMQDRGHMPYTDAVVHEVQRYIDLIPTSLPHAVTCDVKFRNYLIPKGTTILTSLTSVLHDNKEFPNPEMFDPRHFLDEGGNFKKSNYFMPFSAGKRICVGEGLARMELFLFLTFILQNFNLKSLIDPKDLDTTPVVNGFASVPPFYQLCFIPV

[9] = biological target: T1, Cytochrome P450 2D6; assay: Fraction metabolized assessed as human recombinant CYP2D6-mediated drug depletion by LC-MS/MS method relative to total normalized intrinsic clearance; assay type: ADME; details: recombinant enzyme
[10] = biological target: T3, Cytochrome P450 3A4 (Homo sapiens, UniProt P08684); assay: Drug metabolism in human liver microsomes assessed as CYP3A4-mediated drug depletion in presence of CYP2D6 inhibitor quinidine by LC-MS/MS method; assay type: ADME
T3 sequence (P08684 whole entry): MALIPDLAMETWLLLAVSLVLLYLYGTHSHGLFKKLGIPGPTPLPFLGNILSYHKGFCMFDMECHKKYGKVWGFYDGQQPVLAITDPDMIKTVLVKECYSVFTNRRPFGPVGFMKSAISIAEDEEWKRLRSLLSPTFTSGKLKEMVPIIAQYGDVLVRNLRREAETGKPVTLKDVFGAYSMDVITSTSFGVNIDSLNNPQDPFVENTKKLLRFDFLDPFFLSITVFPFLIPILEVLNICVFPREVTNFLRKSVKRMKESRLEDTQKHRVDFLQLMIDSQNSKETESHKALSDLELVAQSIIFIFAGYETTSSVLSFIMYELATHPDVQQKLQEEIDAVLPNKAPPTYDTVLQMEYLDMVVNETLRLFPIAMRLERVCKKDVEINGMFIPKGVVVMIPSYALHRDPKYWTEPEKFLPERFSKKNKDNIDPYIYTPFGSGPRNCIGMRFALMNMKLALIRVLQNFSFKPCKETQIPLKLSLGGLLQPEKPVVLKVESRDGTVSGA

[11] = biological target: Cytochrome P450 2C9 (Homo sapiens, UniProt P11712); assay: Fraction metabolized assessed as human recombinant CYP2C9-mediated drug depletion by LC-MS/MS method relative to total normalized intrinsic clearance; assay type: ADME; details: recombinant enzyme
Sequence of Cytochrome P450 2C9 (P11712 whole entry): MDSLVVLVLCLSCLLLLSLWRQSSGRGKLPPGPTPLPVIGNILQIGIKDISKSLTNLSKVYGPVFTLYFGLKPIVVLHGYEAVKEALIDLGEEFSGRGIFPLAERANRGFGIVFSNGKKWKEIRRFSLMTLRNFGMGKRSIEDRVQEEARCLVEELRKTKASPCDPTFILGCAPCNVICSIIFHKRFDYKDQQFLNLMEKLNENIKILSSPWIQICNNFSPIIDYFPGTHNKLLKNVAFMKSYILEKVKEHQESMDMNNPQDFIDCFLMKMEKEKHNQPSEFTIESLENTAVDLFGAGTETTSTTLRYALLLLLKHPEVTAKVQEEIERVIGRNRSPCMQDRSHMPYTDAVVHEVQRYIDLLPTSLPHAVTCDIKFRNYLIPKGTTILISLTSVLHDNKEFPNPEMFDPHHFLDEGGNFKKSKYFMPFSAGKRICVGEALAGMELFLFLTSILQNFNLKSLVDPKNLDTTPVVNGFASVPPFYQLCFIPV

[12] = biological target: T4, Cytochrome P450 2C8 (Homo sapiens, UniProt P10632); assay: Drug metabolism assessed as human recombinant CYP2C8-mediated drug depletion by LC-MS/MS method; assay type: ADME; details: recombinant enzyme
T4 sequence (P10632 whole entry): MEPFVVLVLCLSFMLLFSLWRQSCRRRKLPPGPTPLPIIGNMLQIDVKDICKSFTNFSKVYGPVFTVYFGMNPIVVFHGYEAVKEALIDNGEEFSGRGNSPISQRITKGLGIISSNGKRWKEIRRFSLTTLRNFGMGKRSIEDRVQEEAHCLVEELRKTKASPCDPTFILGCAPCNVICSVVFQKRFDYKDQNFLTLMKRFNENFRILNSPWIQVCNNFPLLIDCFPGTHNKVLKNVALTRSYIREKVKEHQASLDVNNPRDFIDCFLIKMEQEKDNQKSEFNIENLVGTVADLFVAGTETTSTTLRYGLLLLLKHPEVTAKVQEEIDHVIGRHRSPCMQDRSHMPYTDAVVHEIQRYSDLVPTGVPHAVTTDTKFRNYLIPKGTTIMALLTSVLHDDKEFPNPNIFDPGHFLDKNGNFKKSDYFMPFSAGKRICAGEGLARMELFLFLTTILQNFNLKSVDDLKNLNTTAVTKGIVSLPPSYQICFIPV

[13] = biological target: T3, Cytochrome P450 3A4; assay: Intrinsic clearance assessed as human recombinant CYP3A4-mediated drug depletion per pmol protein by LC-MS/MS method; assay type: ADME; details: recombinant enzyme
[14] = biological target: T2, Cytochrome P450 2J2; assay: Normalized intrinsic clearance assessed as human recombinant CYP2J2-mediated drug depletion per pmol protein by LC-MS/MS method; assay type: ADME; details: recombinant enzyme

T1 sequence (P10635 whole entry): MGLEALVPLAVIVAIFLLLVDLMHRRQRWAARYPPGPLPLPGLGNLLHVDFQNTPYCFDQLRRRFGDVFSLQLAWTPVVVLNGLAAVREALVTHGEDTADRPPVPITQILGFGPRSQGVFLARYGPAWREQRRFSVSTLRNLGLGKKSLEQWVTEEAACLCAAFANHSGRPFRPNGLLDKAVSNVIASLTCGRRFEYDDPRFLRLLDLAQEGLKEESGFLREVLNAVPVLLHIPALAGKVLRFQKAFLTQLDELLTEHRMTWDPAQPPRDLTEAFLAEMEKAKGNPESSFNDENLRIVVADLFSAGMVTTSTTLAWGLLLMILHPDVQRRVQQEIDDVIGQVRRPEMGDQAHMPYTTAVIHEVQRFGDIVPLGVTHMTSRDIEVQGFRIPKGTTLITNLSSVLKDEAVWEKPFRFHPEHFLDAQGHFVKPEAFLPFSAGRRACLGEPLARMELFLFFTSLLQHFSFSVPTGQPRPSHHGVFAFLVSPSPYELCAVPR

CC(C)OC(=O)N[C@H]1Cc2c(n(Cc3ccccn3)c3ccc(C#N)cc23)C1 [LY2452473]
CL [1]: 0.3 µL/min | AUClast [2]: 1310 ng·h/mL | CL [3]: 3 µL/min | Drug uptake [4]: 27.67% | Drug metabolism [5]: metabolite_detected | Fm [6]: 15% | Cmax [7]: 91.5 ng/mL | Fm [8]: 4.9% | Fm [9]: 2.6% | Drug metabolism [10]: metabolite_not_detected | Fm [11]: 8.5% | Drug metabolism [12]: metabolite_not_detected | CL [13]: 0.75 µL/min | CL [14]: 18 µL/min

Reference: ChEMBL document CHEMBL3525964 (Drug Metab Dispos, 2012)
